Results: US10435398B2, “Oxazole orexin receptor antagonists” (MERCK SHARP & DOHME CORP., priority 2014, dated 2019)

How the values were obtained:
[1] = molecular target: human orexin-2 receptor (Homo sapiens (Human), UniProt O43614); experiment: FLIPR Ca2+ Flux Assay, hOX2R; type: cell-based; settings: CHO cells expressing human orexin-2 receptor; agonist 70 pM Ala-6,12 human orexin-A
Protocol: (§1) The utility of the compounds in accordance with the present invention as orexin receptor OX1R and/or OX2R antagonists may be readily determined without undue experimentation by methodology well known in the art, including the “FLIPR Ca^2+ Flux Assay” (Okumura et al., Biochem. Biophys. Res. Comm. 280:976-981, 2001). In a typical experiment the OX1 and OX2 receptor antagonistic activity of the compounds of the present invention was determined in accordance with the following experimental method. For intracellular calcium measurements, Chinese hamster ovary (CHO) cells expressing the rat or human orexin-1 receptor or the human orexin-2 receptor, are grown in Iscove's modified DMEM containing 2 mM L-glutamine, […], 1% hypoxanthine-thymidine supplement, 100 U/ml penicillin, 100 μg/ml streptomycin and 10% heat-inactivated fetal calf serum (FCS). The cells are seeded at 20,000 cells/well into Becton-Dickinson black 384-well clear bottom sterile plates coated with poly-D-lysine. All reagents were from GIBCO-Invitrogen Corp. The seeded plates are incubated overnight at 37° C. and 5% CO2. Ala-6,12 human orexin-A as the agonist is prepared as a 1 mM stock solution in 1% bovine serum albumin (BSA) and diluted in assay buffer (HBSS containing 20 mM HEPES, 0.1% BSA and 2.5 mM probenecid, pH7.4) for use in the assay at a final concentration of 70 pM. Test compounds are prepared as 10 mM stock solution in DMSO, then diluted in 384-well plates, first in DMSO, then assay buffer. On the day of the assay, cells are washed 3 times with 100 μl assay buffer and then incubated for 60 min (37° C., 5% CO2) in 60 μl assay buffer containing 1 μM Fluo-4AM ester, 0.02% pluronic acid, and 1% BSA. The dye loading solution is then aspirated and cells are washed 3 times with 100 μl assay buffer. 30 μl of that same buffer is left in each well. Within the Fluorescent Imaging Plate Reader (FLIPR, Molecular Devices), test compounds are added to the plate in a volume of 25 μl, incubated for 5 min and finally 25 μl of agonist is added. Fluorescence is measured for each well at 1 second intervals for 5 minutes and the height of each fluorescence peak is compared to the height of the fluorescence peak induced by 70 pM Ala-6,12 orexin-A with buffer in place of antagonist. For each antagonist, IC50 value (the concentration of compound needed to inhibit 50% of the agonist response) is determined. Alternatively, compound potency can be assessed by a radioligand binding assay (described in Bergman et. al. Bioorg. Med. Chem. Lett. 2008, 18, 1425-1430) in which the inhibition constant (Ki) is determined in membranes prepared from CHO cells expressing either the OX1 or OX2 receptor. The intrinsic orexin receptor antagonist activity of a compound which may be used in the present invention may be determined by these assays.

[2] = molecular target: human orexin-1 receptor (Homo sapiens (Human), UniProt O43613); experiment: FLIPR Ca2+ Flux Assay, hOX1R; type: cell-based; settings: CHO cells expressing human orexin-1 receptor; agonist 70 pM Ala-6,12 human orexin-A
Protocol: as §1

Sequence of human orexin-1 receptor (O43613 whole entry): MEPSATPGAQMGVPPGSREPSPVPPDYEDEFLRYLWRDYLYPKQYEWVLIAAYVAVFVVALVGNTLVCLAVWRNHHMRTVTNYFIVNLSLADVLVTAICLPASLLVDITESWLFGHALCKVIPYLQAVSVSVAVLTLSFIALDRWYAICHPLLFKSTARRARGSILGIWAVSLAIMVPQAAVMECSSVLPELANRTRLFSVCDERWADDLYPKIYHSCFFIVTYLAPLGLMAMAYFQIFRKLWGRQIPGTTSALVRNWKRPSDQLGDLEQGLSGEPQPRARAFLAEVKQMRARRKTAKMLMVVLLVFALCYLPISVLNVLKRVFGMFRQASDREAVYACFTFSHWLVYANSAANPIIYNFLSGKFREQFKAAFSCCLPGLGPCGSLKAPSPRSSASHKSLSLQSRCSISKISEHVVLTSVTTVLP
Sequence of human orexin-2 receptor (O43614 whole entry): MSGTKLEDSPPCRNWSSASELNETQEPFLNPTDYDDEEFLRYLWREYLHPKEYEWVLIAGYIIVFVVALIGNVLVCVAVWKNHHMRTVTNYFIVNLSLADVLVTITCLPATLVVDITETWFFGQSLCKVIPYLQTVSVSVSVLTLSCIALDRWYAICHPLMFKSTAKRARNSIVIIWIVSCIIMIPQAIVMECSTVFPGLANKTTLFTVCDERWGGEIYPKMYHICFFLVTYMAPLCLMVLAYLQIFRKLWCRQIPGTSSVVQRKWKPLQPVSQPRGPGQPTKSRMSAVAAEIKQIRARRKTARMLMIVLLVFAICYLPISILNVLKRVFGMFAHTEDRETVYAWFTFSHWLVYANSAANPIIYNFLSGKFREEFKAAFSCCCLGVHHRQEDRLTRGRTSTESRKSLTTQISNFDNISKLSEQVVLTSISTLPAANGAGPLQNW

| Structure (SMILES) | IC50 [1] | IC50 [2] |
| --- | --- | --- |
| CCN(CCc1nc(C(C)(C)O)c(C)o1)C(=O)c1ccccc1-c1ccccc1 [Example 1, N-Ethyl-N-(2-(4-(2-hydroxypropan-2-yl)-5-methyloxazol-2-yl)ethyl)-[1,1′-biphenyl]-2-carboxamide] | 29 nM | 1830 nM |
| CCN(CCc1nc(C(C)(C)O)c(C)o1)C(=O)c1cccc(C)c1-n1nccn1 [Example 2, N-Ethyl-N-{2-[4-(1-hydroxy-1-methylethyl)-5-methyl-1,3-oxazol-2-yl]ethyl}-3-methyl-2-(2H-1,2,3-triazol-2-yl)benzamide] | 54 nM | > 10000 nM |
| CCN(CCc1nc(C(C)(C)O)c(C)o1)C(=O)c1cccc(F)c1-n1nccn1 [Example 3, N-Ethyl-3-fluoro-N-{2-[4-(1-hydroxy-1-methylethyl)-5-methyl-1,3-oxazol-2-yl]ethyl}-2-(2H-1,2,3-triazol-2-yl)benzamide] | 44 nM | > 10000 nM |
| CCN(CCc1nc(C(C)(C)O)c(C)o1)C(=O)c1ccc(F)cc1-n1nccn1 [Example 4, N-Ethyl-4-fluoro-N-{2-[4-(1-hydroxy-1-methylethyl)-5-methyl-1,3-oxazol-2-yl]ethyl}-2-(2H-1,2,3-triazol-2-yl)benzamide] | 48 nM | > 10000 nM |
| CCN(CCc1nc(C(C)(C)O)c(C)o1)C(=O)c1ccccc1C1CC1 [Example 5, 2-Cyclopropyl-N-ethyl-N-{2-[4-(1-hydroxy-1-methylethyl)-5-methyl-1,3-oxazol-2-yl]ethyl}benzamide] | 387 nM | > 10000 nM |
| CCN(CCc1nc(C(C)(C)O)c(C)o1)C(=O)c1cccnc1-n1cccn1 [Example 6, N-Ethyl-N-{2-[4-(1-hydroxy-1-methylethyl)-5-methyl-1,3-oxazol-2-yl]ethyl}-2-(1H-pyrazol-1-yl)pyridine-3-carboxamide] | 101 nM | > 10000 nM |
| CCN(CCc1nc(C(C)(C)O)c(C)o1)C(=O)c1cc(F)ccc1-n1nccn1 [Example 7, N-Ethyl-5-fluoro-N-{2-[4-(1-hydroxy-1-methylethyl)-5-methyl-1,3-oxazol-2-yl]ethyl}-2-(2H-1,2,3-triazol-2-yl)benzamide] | 62 nM | > 10000 nM |
| CCN(CCc1nc(C(C)(C)O)c(C)o1)C(=O)c1ccc(OC)cc1-n1nccn1 [Example 8, N-Ethyl-N-{2-[4-(1-hydroxy-1-methylethyl)-5-methyl-1,3-oxazol-2-yl]ethyl}-4-methoxy-2-(2H-1,2,3-triazol-2-yl)benzamide] | 82 nM | > 10000 nM |
| CCN(CCc1nc(C(C)(C)O)c(C)o1)C(=O)c1ccccc1-n1ncnn1 [Example 9, N-ethyl-N-{2-[4-(1-hydroxy-1-methylethyl)-5-methyl-1,3-oxazol-2-yl]ethyl}-2-(2H-tetrazol-2-yl)benzamide] | 491 nM | > 10000 nM |
| CCN(CCc1nc(C(C)(C)O)c(C)o1)C(=O)c1cccnc1OCC(F)F [Example 10, 2-(2,2-difluoroethoxy)-N-ethyl-N-{2-[4-(1-hydroxy-1-methylethyl)-5-methyl-1,3-oxazol-2-yl]ethyl}pyridine-3-carboxamide] | 224 nM | > 10000 nM |
| CCN(CCc1nc(C(C)(C)O)c(C)o1)C(=O)c1ccccc1C1(C#N)CC1 [Example 10b, 2-(1-cyanocyclopropyl)-N-ethyl-N-{2-[4-(1-hydroxy-1-methylethyl)-5-methyl-1,3-oxazol-2-yl]ethyl}benzamide] | 26 nM | 1760 nM |
| CCN(CCc1nc(C(C)(C)O)c(C)o1)C(=O)c1ccccc1-c1nc(C)no1 [Example 10c, N-ethyl-N-{2-[4-(1-hydroxy-1-methylethyl)-5-methyl-1,3-oxazol-2-yl]ethyl}-2-(3-methyl-1,2,4-oxadiazol-5-yl)benzamide] | 212 nM | > 10000 nM |
| CCN(CCc1nc(C(C)(C)O)c(C)o1)C(=O)c1sccc1-n1nccn1 [Example 10d, N-ethyl-N-{2-[4-(1-hydroxy-1-methylethyl)-5-methyl-1,3-oxazol-2-yl]ethyl}-3-(2H-1,2,3-triazol-2-yl)thiophene-2-carboxamide] | 435 nM | > 10000 nM |
| CCN(CCc1nc(C(C)(C)O)c(C)o1)C(=O)c1ccccc1-n1nccn1 [Example 11, N-Ethyl-N-{2-[4-(1-hydroxy-1-methylethyl)-5-methyl-1,3-oxazol-2-yl]ethyl}-2-(2H-1,2,3-triazol-2-yl)benzamide] | 27 nM | 2590 nM |
| CCN(CCc1nc(C(C)(C)O)c(C)o1)C(=O)c1ccsc1-n1nccn1 [Example 12, N-Ethyl-N-{2-[4-(1-hydroxy-1-methylethyl)-5-methyl-1,3-oxazol-2-yl]ethyl}-2-(2H-1,2,3-triazol-2-yl)thiophene-3-carboxamide] | 63 nM | > 10000 nM |
| CCN(CCc1nc(C(C)(C)O)c(C)o1)C(=O)c1cccnc1OCC(F)(F)F [Example 13, N-Ethyl-N-{2-[4-(1-hydroxy-1-methylethyl)-5-methyl-1,3-oxazol-2-yl]ethyl}-2-(2,2,2-trifluoroethoxy)pyridine-3-carboxamide] | 98 nM | > 10000 nM |
| CCN(CCc1nc(C(C)(C)O)c(C)o1)C(=O)c1ccccc1CC(F)(F)F [Example 14, N-Ethyl-N-{2-[4-(1-hydroxy-1-methylethyl)-5-methyl-1,3-oxazol-2-yl]ethyl}-2-(2,2,2-trifluoroethyl)benzamide] | 211 nM | > 10000 nM |
| CCOc1ccccc1C(=O)N(CC)CCc1nc(C(C)(C)O)c(C)o1 [Example 15, 2-Ethoxy-N-ethyl-N-{2-[4-(1-hydroxy-1-methylethyl)-5-methyl-1,3-oxazol-2-yl]ethyl}benzamide] | 223 nM | > 10000 nM |
| CCN(CCc1nc(C(C)(C)O)c(C)o1)C(=O)c1ccccc1C(=O)OC [Example 16, Methyl 2-(ethyl{2-[4-(1-hydroxy-1-methylethyl)-5-methyl-1,3-oxazol-2-yl]ethyl}carbamoyl)benzoate] | 630 nM | > 10000 nM |
| CCN(CCc1nc(C(C)(C)O)c(C)o1)C(=O)c1ccccc1-n1cccn1 [Example 17, N-Ethyl-N-{2-[4-(1-hydroxy-1-methylethyl)-5-methyl-1,3-oxazol-2-yl]ethyl}-2-(1H-pyrazol-1-yl)benzamide] | 292 nM | > 10000 nM |
| CCN(CCc1nc(C(C)(C)O)c(C)o1)C(=O)c1ccccc1C1(C(F)F)CC1 [Example 18b, 2-(1-(difluoro-methyl)cyclopropyl)-N-ethyl-N-(2-(4-(2-hydroxypropan-2-yl)-5-methyloxazol-2-yl)ethyl)benzamide] | 145 nM | > 10000 nM |
| CCN(CCc1nc(C(C)(O)CC)c(C)o1)C(=O)c1ccccc1-n1nccn1 (stereo not shown) [Example 19, N-Ethyl-N-{2-[4-(1-hydroxy-1-methylpropyl)-5-methyl-1,3-oxazol-2-yl]ethyl}-2-(2H-1,2,3-triazol-2-yl)benzamide] | 12 nM | 3380 nM |
| CCN(CCc1nc(C(C)(O)C(C)C)c(C)o1)C(=O)c1ccccc1-n1nccn1 (stereo not shown) [Example 20, N-Ethyl-N-{2-[4-(1-hydroxy-1,2-dimethylpropyl)-5-methyl-1,3-oxazol-2-yl]ethyl}-2-(2H-1,2,3-triazol-2-yl)benzamide] | 19 nM | 2670 nM |
| C=CCN(CCc1nc(C(C)(C)O)c(C)o1)C(=O)c1ccccc1-n1nccn1 [Example 21, N-{2-[4-(1-Hydroxy-1-methylethyl)-5-methyl-1,3-oxazol-2-yl]ethyl}-N-prop-2-en-1-yl-2-(2H-1,2,3-triazol-2-yl)benzamide] | 19 nM | 1010 nM |
| CCCN(CCc1nc(C(C)(C)O)c(C)o1)C(=O)c1ccccc1-n1nccn1 [Example 22, N-{2-[4-(1-Hydroxy-1-methylethyl)-5-methyl-1,3-oxazol-2-yl]ethyl}-N-propyl-2-(2H-1,2,3-triazol-2-yl)benzamide] | 19 nM | 2370 nM |
| Cc1oc(CCN(CC2CC2)C(=O)c2ccccc2-n2nccn2)nc1C(C)(C)O [Example 23, N-(Cyclopropylmethyl)-N-{2-[4-(1-hydroxy-1-methylethyl)-5-methyl-1,3-oxazol-2-yl]ethyl}-2-(2H-1,2,3-triazol-2-yl)benzamide] | 21 nM | 2840 nM |
